Assay results from US20240246979A1, “cGAS INHIBITORS” (Eli Lilly and Company, priority 2022, published 2024).

Tests used:
[1] = biological target: T1, cGAS (Homo sapiens, UniProt Q8N884); assay: Cellular assay to measure cGAS activity (IFNb AlphaLISA in THP1 cells stimulated by RDG-Adenovirus-GFP); assay type: cell-based; parameters: host or cells: THP1 cells differentiated with PMA and stimulated with RDG-Adenovirus-GFP; conditions: PMA-differentiated THP1 cells, RDG-Adenovirus-GFP at 1000 MOI; inhibition of IFNb production as marker for cGAS activity
Procedure, shortened: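 The readout is secreted IFNb measured by AlphaLISA after overnight compound exposure. THP1 cells, differentiated with PMA for 24 h and rested overnight, were infected with RDG-Adenovirus-GFP (1000 MOI, 4 h) before compounds were added; IC50 came from a 4-parameter logistic fit of inhibition against log concentration.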

[2] = biological target: T1, cGAS; assay: In vitro inhibition assay of cGAS activity (cGAMP production, RapidFire mass spectrometry); assay type: biochemical; parameters: Insert cDNA encoding full-length of human cGAS; His6; made in house; host or cells: E. coli BL21(DE3); conditions: 10 nM recombinant human cGAS, 60 nM 75-bp dsDNA, 50 μM ATP, 50 μM GTP, 3 hrs
Procedure, shortened: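 Reactions in 10 mM Tris-Cl pH 7.5, 5 mM MgCl2, 0.01% Triton X-100 contained serially diluted compound, 10 nM recombinant cGAS, dsDNA activator and 50 μM each of ATP and GTP, run 3 hrs at ambient temperature. After formic acid quench, cGAMP output was measured by mass spectrometry and percent inhibition versus log concentration was fitted for IC50.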

T1 sequence (Q8N884 whole entry): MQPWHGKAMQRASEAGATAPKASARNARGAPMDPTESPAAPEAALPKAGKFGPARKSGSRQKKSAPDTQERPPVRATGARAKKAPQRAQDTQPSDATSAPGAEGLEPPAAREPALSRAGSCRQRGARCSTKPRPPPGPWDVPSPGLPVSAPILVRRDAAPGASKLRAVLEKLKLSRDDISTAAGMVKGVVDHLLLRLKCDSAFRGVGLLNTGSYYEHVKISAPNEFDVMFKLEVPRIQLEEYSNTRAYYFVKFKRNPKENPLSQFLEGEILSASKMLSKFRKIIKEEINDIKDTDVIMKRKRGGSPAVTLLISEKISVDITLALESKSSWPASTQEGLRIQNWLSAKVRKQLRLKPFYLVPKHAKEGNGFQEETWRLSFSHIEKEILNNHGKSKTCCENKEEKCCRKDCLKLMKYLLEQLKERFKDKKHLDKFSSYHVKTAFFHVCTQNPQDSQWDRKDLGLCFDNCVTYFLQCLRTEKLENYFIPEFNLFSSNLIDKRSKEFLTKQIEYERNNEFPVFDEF

Row | SMILES | IC50 [1] [nM] | IC50 [2] [nM]
1 | Cn1ncc(-c2cc(Cl)c(Cl)c3c2c2c(n3C)C(CCO)CNC(=O)C2)n1 (stereo not drawn) [Example 127, 7,8-Dichloro-5-(2-hydroxyethyl)-6-methyl-10-(2-methyl-2H-1,2,3-triazol-4-yl)-3,4,5,6-tetrahydroazepino[4,5-b]indol-2(1H)-one] | 1210 | 34.4
2 | Cn1ncc(-c2cc(Cl)c(Cl)c3[nH]c4c(c23)CC(=O)NC[C@H]4CCO)n1 (single isomer, unassigned) [Example 8B] | 3140 | 214
3 | CC1C(=O)NCCc2[nH]c3c(Cl)c(Cl)cc(CC#N)c3c21 (stereo not drawn) [Example 31, 2-(7,8-Dichloro-1-methyl-2-oxo-1,2,3,4,5,6-hexahydroazepino[4,5-b]indol-10-yl)acetonitrile] | 1120 | 39.5
4 | C[C@@H]1C(=O)NCCc2[nH]c3c(Cl)c(Cl)cc(OC[C@@H](C)O)c3c21 (single isomer, unassigned) [Example 82] | 910 | 32.5
5 | Cn1c2c(c3c(CC#N)cc(Cl)c(Cl)c31)CC(=O)NC[C@H]2CC(C)(C)O (single isomer, unassigned) [Example 130] | 205 | 12.3
6 | C[C@@H]1CNC(=O)Cc2c1[nH]c1c(Cl)c(Cl)cc(OCC#N)c21 (single isomer, unassigned) [Example 149] | 3080 | 1560
7 | CC1C(=O)NCCc2c1c1c(OCC#N)cc(Cl)c(Cl)c1n2C (stereo not drawn) [Example 78, 2-((7,8-Dichloro-1,6-dimethyl-2-oxo-1,2,3,4,5,6-hexahydroazepino[4,5-b]indol-10-yl)oxy)acetonitrile] | 810 | 46.5
8 | CC1C(=O)NCCc2[nH]c3c(Cl)c(Cl)cc(NCC(F)F)c3c21 (stereo not drawn) [Example 70, 7,8-Dichloro-10-((2,2-difluoroethyl)amino)-1-methyl-3,4,5,6-tetrahydroazepino[4,5-b]indol-2(1H)-one] | 1290 | 30.5
9 | C[C@@H](O)CNc1cc(Cl)c(Cl)c2c1c1c(n2C)CCNC(=O)[C@@H]1C (single isomer, unassigned) [Example 98] | 2180 | 42.4
10 | C[C@@H]1C(=O)NCCc2[nH]c3c(Cl)c(Cl)cc(OCC(N)=O)c3c21 (single isomer, unassigned) [Example 17B] | 4080 | 1540
11 | CC1C(=O)NCCc2c1c1c(OCCCO)cc(Cl)c(Cl)c1n2C (stereo not drawn) [Example 77, 7,8-Dichloro-10-(3-hydroxypropoxy)-1,6-dimethyl-3,4,5,6-tetrahydroazepino[4,5-b]indol-2(1H)-one] | 843 | 14.1
12 | CC(C)(O)C[C@@H]1CNC(=O)Cc2c1[nH]c1c(Cl)c(Cl)cc(OCC#N)c21 (single isomer, unassigned) [Example 108] | 676 | 25.7
13 | C[C@@H]1C(=O)NC[C@H](C)c2[nH]c3c(Cl)c(Cl)cc(CC#N)c3c21 (single isomer, unassigned) [Example 152] | 5310 | 948
14 | C[C@H]1C(=O)NCCc2[nH]c3c(Cl)c(Cl)cc(-c4cnn(C)n4)c3c21 [Example 38, (R)-7,8-Dichloro-1-methyl-10-(2-methyl-2H-1,2,3-triazol-4-yl)-3,4,5,6-tetrahydroazepino[4,5-b]indol-2(1H)-one Or (S′)-7,8-Dichloro-1-methyl-10-(2-methyl-2H-1,2,3-triazol-4-yl)-3,4,5,6-tetrahydroazepino[4,5-b]indol-2(1H)-one] | 9800 | 1650
15 | Cn1ncc(-c2cc(Cl)c(Cl)c3[nH]c4c(c23)CC(=O)NC[C@H]4CCO)n1 (single isomer, unassigned) [Example 8A] | 168 | 15.6
16 | NC(=O)C(=O)Nc1cc(Cl)c(Cl)c2[nH]c3c(c12)CC(=O)NCC3 [Example 32, N^1-(7,8-Dichloro-2-oxo-1,2,3,4,5,6-hexahydroazepino[4,5-b]indol-10-yl)oxalamide] | 1400 | 33.3
17 | C[C@H]1C(=O)NCCc2[nH]c3c(Cl)c(Cl)cc(NCCCO)c3c21 (single isomer, unassigned) [Example 54] | 5660 | 4250
18 | C[C@@H]1C(=O)NC[C@H](C)c2[nH]c3c(Cl)c(Cl)cc(CC#N)c3c21 (single isomer, unassigned) [Example 151] | 1770 | 19.7

Second part, the molecule after the results:

Row | IC50 [1] [nM] | IC50 [2] [nM] | SMILES
19 | 7060 | 1200 | COCCOc1cc(Cl)c(Cl)c2[nH]c3c(c12)[C@H](C)C(=O)NCC3 (single isomer, unassigned) [Example 81]
20 | 2720 | 53.3 | CC1C(=O)NCC(C)(C)c2[nH]c3c(Cl)c(Cl)cc(NCCO)c3c21 (stereo not drawn) [Example 131, 7,8-Dichloro-10-((2-hydroxyethyl)amino)-1,5,5-trimethyl-3,4,5,6-tetrahydroazepino[4,5-b]indol-2(1H)-one]
21 | 3230 | 36.1 | CC1C(=O)NCCc2[nH]c3c(Cl)c(Cl)cc(CCCO)c3c21 (stereo not drawn) [Example 88, 7,8-Dichloro-10-(3-hydroxypropyl)-1-methyl-3,4,5,6-tetrahydroazepino[4,5-b]indol-2(1H)-one]
22 | 1610 | 14.7 | COCC[C@H]1CNC(=O)[C@@H](C)c2c1[nH]c1c(Cl)c(Cl)cc(NCCO)c21 (single isomer, unassigned) [Example 173]
23 | 8140 | 1090 | CCOc1cc(Cl)c(Cl)c2[nH]c3c(c12)[C@H](C)C(=O)NCC3 (single isomer, unassigned) [Example 15B]
24 | 2070 | 70.9 | CC1C(=O)NCCc2[nH]c3c(Cl)c(Cl)cc(OCCO)c3c21 (stereo not drawn) [Example 18, 7,8-Dichloro-10-(2-hydroxyethoxy)-1-methyl-3,4,5,6-tetrahydroazepino[4,5-b]indol-2(1H)-one]
25 | 1020 | 20.7 | COCCC1CNC(=O)Cc2c1[nH]c1c(Cl)c(Cl)cc(-c3cnn(C)n3)c21 (racemic) [Example 166, 7,8-Dichloro-5-(2-methoxyethyl)-10-(2-methyl-2H-1,2,3-triazol-4-yl)-3,4,5,6-tetrahydroazepino[4,5-b]indol-2(1H)-one]
26 | 1280 | 48.7 | CCC1CNC(=O)Cc2c1[nH]c1c(Cl)c(Cl)cc(-c3cnn(C)n3)c21 (stereo not drawn) [Example 162, 7,8-Dichloro-5-ethyl-10-(2-methyl-2H-1,2,3-triazol-4-yl)-3,4,5,6-tetrahydroazepino[4,5-b]indol-2(1H)-one]
27 | 1340 | 8.34 | CC1C(=O)NCCc2c1c1c(NCCO)cc(Cl)c(Cl)c1n2C (single isomer, unassigned) [Example 51, 7,8-Dichloro-10-((2-hydroxyethyl)amino)-1,6-dimethyl-3,4,5,6-tetrahydroazepino[4,5-b]indol-2(1H)-one]
28 | 390 | 15 | CC1C(=O)NCCc2[nH]c3c(Cl)c(Cl)cc(NCCO)c3c21 (racemic) [Example 49, 7,8-Dichloro-10-((2-hydroxyethyl)amino)-1-methyl-3,4,5,6-tetrahydroazepino[4,5-b]indol-2(1H)-one]
29 | > 10000 | 3730 | C[C@@H]1CNC(=O)[C@@H](C)c2c1[nH]c1c(Cl)c(Cl)cc(NC(=O)CO)c21 (single isomer, unassigned) [Example 161, N-((1S,5R)-7,8-Dichloro-1,5-dimethyl-2-oxo-1,2,3,4,5,6-hexahydroazepino[4,5-b]indol-10-yl)-2-hydroxyacetamide or N-((1R,5S)-7,8-Dichloro-1,5-dimethyl-2-oxo-1,2,3,4,5,6-hexahydroazepino[4,5-b]indol-10-yl)-2-hydroxyacetamide]
30 | 398 | 17.6 | Cn1ncc(-c2cc(Cl)c(Cl)c3[nH]c4c(c23)CC(=O)NC[C@H]4CC(C)(C)O)n1 (single isomer, unassigned) [Example 103]
31 | 1570 | 42.2 | Cn1ncc(-c2cc(Cl)c(Cl)c3[nH]c4c(c23)CC(=O)NC[C@H]4CC(C)(C)O)n1 (single isomer, unassigned) [Example 104]
32 | 2160 | 87 | CC1C(=O)NCCc2[nH]c3c(Cl)c(Cl)cc(-c4cnn(C)n4)c3c21 (stereo not drawn) [Example 9, 7,8-Dichloro-1-methyl-10-(2-methyl-2H-1,2,3-triazol-4-yl)-3,4,5,6-tetrahydroazepino[4,5-b]indol-2(1H)-one]
33 | > 10000 | 15.6 | CNC(=O)CC1CNC(=O)Cc2c1[nH]c1c(Cl)c(Cl)cc(-c3cnn(C)n3)c21 (stereo not drawn) [Example 6, 2-(7,8-Dichloro-10-(2-methyl-2H-1,2,3-triazol-4-yl)-2-oxo-1,2,3,4,5,6-hexahydroazepino[4,5-b]indol-5-yl)-N-methylacetamide]
